# Assay results reported in US20240368115A1, “REGULATOR CONTAINING TRICYCLIC DERIVATIVE, PREPARATION METHOD THEREFOR AND APPLICATION THEREOF” (SHUJING BIOPHARMA CO., LTD, priority 2021, published 2024).
# Like-named read-outs stand apart in the source and are kept apart here.
# Columns and labels:
# [1] = target: T1, D2L receptor (Homo sapiens, UniProt P14416); assay: D2L receptor cAMP agonist test; assay type: cell-based; conditions: HEK293 cell strain stably expressing D2L receptor; for EC50: cAMP, forskolin 0.5 μM; for D2L Max Act %: positive control dopamine 1 μM
# T1 construct: expressed in transfected cells
# Description: (§1) • cAMP detection kit was purchased from Cisbio; an HEK293 cell strain stably expressing D2L receptor was constructed by Shanghai Shujing Biopharma Co., Ltd.; dopamine, forskolin, and IBMX were purchased from Sigma; ProxiPlate-384 well plates were purchased from PerkinElmer; HBSS was purchased from Thermo Fisher Scientific.
# • (1) The cryopreserved cells were thawed in a water bath at 37° C., the cell suspension was resuspended in HBSS buffer, and the mixed solution was centrifuged at 750 rpm for 5 min to remove the medium. The pellet was resuspended in an appropriate amount of experimental buffer, and an appropriate amount of cell suspension was diluted to 0.4×10^6 cells/mL. • (2) 5 μL of cell suspension was added to a ProxiPlate-384 well plate (2×10^3 cells/well), and the plate was centrifuged at 1000 rpm for 1 min. • (3) Test compounds were serially diluted in an experimental buffer, and 5 μL of the mixed solution was transferred to the reaction plate with Bravo.
# [2] = target: 5-HT2A receptor (Homo sapiens, UniProt P28223); assay: Calcium flux test for 5-HT2A receptor; assay type: cell-based; conditions: CHO cell strain stably expressing 5-HT2A receptor; for IC50: calcium flux, antagonism of serotonin; for 5-HT2A Max Inh %: positive control ketanserin 10^−7 M
# Description: • Fluo-4 calcium flux detection kit was purchased from Invitrogen; a CHO cell strain stably expressing 5-HT2A receptor was purchased from PerkinElmer; serotonin was purchased from Sigma; ketanserin was purchased from Targetmol; polylysine-coated 384-well plates and 384-well compound plates were purchased from Greiner Bio-One. Molecular Device FLIPR, Agilent Bravo liquid workstation, and Countstar BioTech cell counter.
# • (1) The cryopreserved cells were rapidly thawed in a water bath at 37° C., and the cells were resuspended in a plating medium. The cryopreservation solution was removed by centrifugation at 200×g. The pellet was resuspended in an appropriate amount of plating medium, 20 μL of cell suspension was counted using a cell counter, and the cell density was diluted to 1×10^6 cells/mL. • (2) 20 μL of cell suspension was added to a polylysine-coated 384-well plate (2×10^4 cells/well). • (3) The cell plate was incubated in a 37° C./5% CO2 incubator for 16-20 h.
# • (1) The cell plate was taken out from the incubator and centrifuged at 100×g to remove the medium. 20 μL of experimental buffer was added, and then 20 μL of 2× fluorescent probe solution was added. […] The cell plate and agonist positive compound plate were placed into the FLIPR instrument, the detection program was run, 10 μL of the diluted compound was transferred from the agonist compound plate to the cell plate, and the fluorescence signal was read. […] The cell plate and test compound plate were placed in the FLIPR instrument, the detection program was run, and 10 μL of the diluted compound was transferred from the test compound plate to the cell plate. […] The test compound plate was then taken out, and the agonist positive compound plate with 6×EC50 concentration was placed.
# Inhibition rate (Inhibition %)=(negative control reading value−compound reading value)/(negative control reading value−positive control reading value)×100%
# [3] = Pharmacokinetic test in mice; assay type: in vivo; conditions: plasma, oral intragastric
# Description: Male ICR mice were administered orally intragastrically, the plasma concentrations of the compounds of the present invention were measured in the mice, the PK parameters were calculated, and the pharmacokinetic evaluation was performed on the compounds of the present invention.
# • (1) Test samples: the compounds of the examples of the present invention, self-made. • (2) Test animals: ICR mice, SPF grade, male, Xuzhou Medical University. • (3) Main test instruments:
# Drug preparation: according to the weight of the weighed drug, the preparation volume was calculated. 5% of DMSO was added firstly. After the drug was fully dissolved, 95% of 20% aqueous PB-cyclodextrin solution was then added, and the mixture was mixed well for later use.
# Administration route: oral intragastric administration. Frequency and duration of administration: single administration.
# ICR mice were stratified according to body weight and then randomly divided into groups of 9 mice each, and the mice were fasted overnight prior to the test. The mice were separately administered orally intragastrically. 50 μL of blood was collected from the fundus vein of the mouse at 0 h, 0.083 h, 0.25 h, 0.5 h, 1 h, 2 h, 4 h, 8 h, 12 h, and 24 h (3 time points for each mouse) to a sample tube containing heparin sodium as an anticoagulant, and the tube was placed in wet ice and centrifuged at 4000 r·min^−1 for 10 min. The plasma was separated, and cryopreserved in a refrigerator at −80° C. for testing.
# The concentrations of plasma samples were measured by high performance liquid chromatography-tandem mass spectrometry (LC-MS/MS). The retention times of the compounds and internal standard, chromatogram acquisitions, and integrals of chromatograms were processed using the software Analyst (AB SCIEX), and the data statistics were processed using the software Watson LIMS (Thermo Fisher Scientific) or Analyst (AB SCIEX). The concentration of plasma was processed using a non-compartmental model of the pharmacokinetic software WinNonlin™ Version 6.3 (Pharsight, Mountain View, CA), and pharmacokinetic parameters were calculated by a linear log-trapezoidal method.
# [4] = target: T2, 5-HT1A receptor (Homo sapiens, UniProt P08908); assay: 5-HT1A receptor cAMP agonist test; assay type: cell-based; conditions: HEK293 cell strain stably expressing 5-HT1A receptor; for EC50: cAMP, forskolin 2.5×10^−7 M; for 5-HT1A Max Act %: positive control serotonin 10^−6 M
# T2 construct: expressed in transfected cells
# T2 sequence (P08908 1-422): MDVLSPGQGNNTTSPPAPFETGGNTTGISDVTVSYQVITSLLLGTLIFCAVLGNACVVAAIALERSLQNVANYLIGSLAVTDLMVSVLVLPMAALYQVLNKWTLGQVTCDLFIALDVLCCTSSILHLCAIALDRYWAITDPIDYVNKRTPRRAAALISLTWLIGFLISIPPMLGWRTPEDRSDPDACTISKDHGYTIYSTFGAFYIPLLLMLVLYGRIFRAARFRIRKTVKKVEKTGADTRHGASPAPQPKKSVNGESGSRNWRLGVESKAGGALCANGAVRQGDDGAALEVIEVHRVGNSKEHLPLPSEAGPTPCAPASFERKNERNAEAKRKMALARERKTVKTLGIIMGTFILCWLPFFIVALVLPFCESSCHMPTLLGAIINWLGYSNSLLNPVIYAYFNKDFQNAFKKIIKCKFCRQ
# Description: as §1, with “5-HT1A” for “D2L”, “serotonin,” for “dopamine,”
# (§2) • (1) The cultured cells were digested with trypsin, and the cell suspension was washed with HBSS buffer after the digestion was terminated. The medium was removed by centrifugation at 200×g. The pellet was resuspended in an appropriate amount of experimental buffer, and 20 μL of cell suspension was counted using a cell counter and diluted to 0.4×10^6 cells/mL. • (2) 5 μL of cell suspension was added to a ProxiPlate-384 well plate (2×10^3 cells/well). • (3) Test compounds were serially diluted in an experimental buffer, and 5 μL of the mixed solution was transferred to the reaction plate with Bravo.
# [5] = target: T3, D2S receptor (Homo sapiens, UniProt P14416); assay: D2S receptor cAMP agonist test; assay type: cell-based; conditions: HEK293 cell strain stably expressing D2S receptor; for EC50: cAMP, forskolin 5×10^−7 M; for D2S Max Act %: positive control dopamine 1×10^−7 M
# T3 construct: expressed in transfected cells
# Description: as §1, with “cAMP” for “• cAMP”, “D2S” for “D2L”
# as §2, with “0.6×10^6” for “0.4×10^6”, “(3×10^3” for “(2×10^3”
# [6] = male, ICR, mouse, po, 5 mg/kg, single dose 5 mg/kg
# [7] = male, ICR, mouse, po, 5 mg/kg, single dose 5 mg/kg, read-out: AUC(0-inf)
# [8] = male, ICR, mouse, po, 5 mg/kg, single dose 5 mg/kg, read-out: Cmax
# [9] = male ICR mice, single dose 5 mg/kg, 5 mg/kg
# 5-HT2A receptor, sequence (P28223 whole entry): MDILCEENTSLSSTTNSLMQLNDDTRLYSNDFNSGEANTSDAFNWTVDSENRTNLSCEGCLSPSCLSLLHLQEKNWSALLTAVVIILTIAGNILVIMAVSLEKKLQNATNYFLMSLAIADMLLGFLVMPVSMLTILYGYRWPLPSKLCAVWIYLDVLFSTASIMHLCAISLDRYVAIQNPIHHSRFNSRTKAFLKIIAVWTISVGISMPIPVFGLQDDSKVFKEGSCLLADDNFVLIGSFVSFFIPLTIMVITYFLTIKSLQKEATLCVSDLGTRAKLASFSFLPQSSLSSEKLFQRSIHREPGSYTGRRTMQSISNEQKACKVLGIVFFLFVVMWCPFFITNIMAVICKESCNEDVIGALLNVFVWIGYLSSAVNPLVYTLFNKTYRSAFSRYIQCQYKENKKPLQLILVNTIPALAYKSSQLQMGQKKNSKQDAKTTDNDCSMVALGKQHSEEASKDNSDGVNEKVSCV
# T1 sequence (P14416 whole entry): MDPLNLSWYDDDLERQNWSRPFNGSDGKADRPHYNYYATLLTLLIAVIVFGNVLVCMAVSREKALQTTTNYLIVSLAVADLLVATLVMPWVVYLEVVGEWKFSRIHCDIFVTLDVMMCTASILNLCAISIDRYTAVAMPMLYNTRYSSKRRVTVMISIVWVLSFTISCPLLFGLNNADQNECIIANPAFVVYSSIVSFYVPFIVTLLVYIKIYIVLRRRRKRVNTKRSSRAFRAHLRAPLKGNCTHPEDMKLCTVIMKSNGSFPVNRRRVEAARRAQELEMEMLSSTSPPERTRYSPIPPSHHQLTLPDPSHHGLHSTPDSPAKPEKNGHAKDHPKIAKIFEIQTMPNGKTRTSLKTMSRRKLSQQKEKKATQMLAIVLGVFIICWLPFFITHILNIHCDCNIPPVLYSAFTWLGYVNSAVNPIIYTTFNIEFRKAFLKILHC
# T3 sequence (P14416 1-414 isoform P14416-2): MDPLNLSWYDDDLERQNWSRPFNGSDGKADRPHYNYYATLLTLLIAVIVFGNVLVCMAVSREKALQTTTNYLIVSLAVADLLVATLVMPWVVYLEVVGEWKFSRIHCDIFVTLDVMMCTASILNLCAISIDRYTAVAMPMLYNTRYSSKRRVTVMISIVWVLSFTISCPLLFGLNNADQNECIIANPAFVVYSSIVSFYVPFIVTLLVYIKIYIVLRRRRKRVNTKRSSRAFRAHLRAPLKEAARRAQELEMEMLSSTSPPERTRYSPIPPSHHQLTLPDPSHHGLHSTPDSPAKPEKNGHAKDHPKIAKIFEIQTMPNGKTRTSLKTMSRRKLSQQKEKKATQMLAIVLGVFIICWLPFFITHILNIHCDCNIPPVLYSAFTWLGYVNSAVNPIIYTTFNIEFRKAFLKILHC
SMILES,EC50 [1] [µM],D2L Max Act % [1] [%],IC50 [2] [µM],5-HT2A Max Inh % [2] [%],"half-life [3, 6] [h]","AUC(0-inf) [3, 7] [µg·h/mL]","Cmax [3, 8] [µg/mL]",EC50 [4] [µM],5-HT1A Max Act % [4] [%],EC50 [5] [µM],D2S Max Act % [5] [%],"AUC(0-inf) [3, 9] [µg·h/mL]","Cmax [3, 9] [µg/mL]","t1/2 [3, 9] [h]","half-life ([3]; male, ICR, mouse, po, 3 mg/kg, single dose 3 mg/kg) [h]","AUC(0-inf) ([3]; male, ICR, mouse, po, 3 mg/kg, single dose 3 mg/kg, read-out: AUC(0-inf)) [µg·h/mL]","Cmax ([3]; male, ICR, mouse, po, 3 mg/kg, single dose 3 mg/kg, read-out: Cmax) [µg/mL]"
"O=C1Nc2cc(OCCCCN3CCN(c4cccc5sccc45)CC3)ccc2C2CC12 (stereo not drawn) [Example 42, 5-(4-(4-(Benzo[b]thiophen-4-yl)piperazin-1-yl)butoxy)-1,1a,3,7b-tetrahydro-2H-cyclopropa[c]quinolin-2-one]",0.00047,32.7,1.69,100.6,13,11.3,0.687,0.313,55.7,0.00095,106.0,–,–,–,–,–,–
"O=C1Nc2cc(OCCCCN3CCN(c4cccc(Cl)c4Cl)CC3)ccc2[C@H]2C[C@@H]12 (single isomer, unassigned) [Example 1-P1]",0.00107,47.7,0.745,100.3,34.3,13.1,0.341,1.8,33.9,0.00094,111.9,–,–,–,–,–,–
"O=C1Nc2cc(OCCCCN3CCN(c4cccc5c4OC(F)(F)O5)CC3)ccc2C2CC12 (stereo not drawn) [Example 41, 5-(4-(4-(2,2-Difluorobenzo[d][1,3]dioxolan-4-yl)piperazin-1-yl)butoxy)-1,1a,3,7b-tetrahydro-2H-cyclopropa[c]quinolin-2-one]",0.00097,42.4,3.35,80.4,8.6,9.97,0.971,0.0508,92.7,0.00092,115.0,–,–,–,–,–,–
"O=C1Nc2cc(OCCCCN3CCN(c4cccc5sccc45)CC3)ccc2C2CC12 (single isomer, unassigned) [Example 42-P2]",0.00043,32.6,0.497,97.3,–,–,–,0.693,45.5,0.00093,99.2,11.1578,1.2967,5.8,–,–,–
"O=C1COc2ccc(OCCCCN3CCN(c4cccc(Cl)c4Cl)CC3)cc2N1 [RP5063, reference compound]",–,–,9.13,67.6,3.8,1.56,0.195,1.88,31.6,–,–,–,–,–,–,–,–
"O=C1Nc2cc(OCCCCN3CCN(c4cccc5c4CC(F)(F)C5)CC3)ccc2C2CC12 (stereo not drawn) [Example 46, 5-(4-(4-(2,2-Difluoro-2,3-dihydro-1H-inden-4-yl)piperazin-1-yl)butoxy)-1,1a,3,7b-tetrahydro-2H-cyclopropa[c]quinolin-2-one]",0.0004,43.4,2.34,91.6,15.2,17.7,1.2,0.354,62.6,0.00093,114.3,–,–,–,–,–,–
"O=C1CCc2ccc(OCCCCN3CCN(c4cccc(Cl)c4Cl)CC3)cc2N1 [Aripiprazole, reference compound]",–,–,–,86.0,3.5,1.04,0.18,–,43.8,–,–,–,–,–,–,–,–
"O=C1Nc2cc(OCCCCN3CCN(c4cccc5sc(Cl)cc45)CC3)ccc2C2CC12 (stereo not drawn) [Example 49, 5-(4-(4-(2-Chlorobenzo[b]thiophen-4-yl)piperazin-1-yl)butoxy)-1,1a,3,7b-tetrahydro-2H-cyclopropa[c]quinolin-2-one]",0.00091,56.3,7.4,90.4,–,–,–,0.128,80.7,0.00099,112.6,–,–,–,10.5,4.78,0.42
